Measurements: article PMC8508980, “Design, Synthesis and Anticancer Profile of New 4-(1H-benzo[d]imidazol-1-yl)pyrimidin-2-amine-Linked Sulfonamide Derivatives with V600EBRAF Inhibitory Effect” (International Journal of Molecular Sciences, 2021)

Columns and labels:
Type in all cases: cell-based
[1] = test system: A375 cells; experiment: Antiproliferative MTT assay; details: Homo sapiens, A-375, 48 h, mean ± S.D. of two experiments
Description: (§1) The effect of final target compounds over A375 and SK-MEL-5 was performed using reported procedures (detailed procedure is located in the Supplementary Information page 51s). […]
(§2) Evaluation of the Antiproliferative Activity Against A375 and SK-MEL-5
(§3) A375 and SK-MEL-5 cells were purchased from American Type Culture Collection (ATCC, Ro ckv ille, MD, USA) and maintained in Dulbecco’s modified eagle medium (DMEM, Welgene, Daegu, Republic of Korea) supplemented with 10% fetal bovine serum (FBS, Welgene, Daegu, Republic of Korea) and 1% penicillin/streptomycin (Welgene, Daegu, Republic of Korea) in a hu midified atmo sphere with 5% CO2 at 37 °C. Both cells were taken from culture substrate with 0.05% trypsin-0.02% EDTA and plated at a density of 5 × 10^3 cells/well in 96 well plates and then incubated at 37 °C fo r 24 h in a hu midified atmo sphere with 5% CO2 prior to treatment with various concentrations (3-fold serial dilution, 12 points) of the tested compounds. The cells were incubated for 48 h after treatment with the test compounds. The cell viability was assessed by the conventional 3-(4,5-dimethylthiazol-2-yl)-2,5-diphenyltetrazolium bromide (MTT) reduction assay. MTT assays were carried out with CellTiter 96® (Promega) according to the manufacturer’s instructions. The absorbance at 590 nm was recorded using EnVision 2103 (Perkin Elmer; Bo ston , MA, USA). The IC50 values were calculated using GraphPad Prism 4.0

[2] = test system: SK-MEL-5 cells; experiment: Antiproliferative MTT assay; details: Homo sapiens, 48 h, mean ± S.D. of two experiments
Description: as §1, §2, §3

[3] = test system: A498; experiment: NCI 60 cell line screen; details: Homo sapiens; A498, Renal Cancer; read-out: Percent growth
Description: (§4) Anticancer profiling over a panel of 60 cancer cell lines was carried out at the National Cancer Institute (NCI), Bethesda, Maryland, USA, https://dtp.cancer.gov/discovery_development/nci-60/methodology.htm (Last visit 22 September 2021), using the standard procedure (detailed procedure is located in the Supplementary Information page 50 s).
(§5) NCI standard procedure for 60 cell lines assay
(§6) The human tumor cell lines of the cancer screening panel are grown in RPMI 1640 mediu m containing 5% fetal bovine serum and 2 mM L-glutamine. For a typical screening experiment, cells are inoculated into 96 well microtiter plates in 100 μL at plating densities ranging from 5,000 to 40,000 cells/well depending on the doubling time of individual cell lines. After cell inoculation, the microtiter plates are incubated at 37° C, 5 % CO2, 95 % air and 100 % relative humidity for 24 h prior to addition of experimental drugs.
(§7) After 24 h, two plates of each cell line are fixed in situ with TCA, to represent a measurement of the cell population for each cell line at the time of drug addition (Tz). Experimental drugs are solubilized in dimethyl sulfoxide at 400-fold the desired final maximum test concentration (10 µM) and stored frozen prior to use. At the time of drug addition, an aliquot of frozen concentrate is thawed and diluted to twice the desired final maximum test concentration with co mp lete medium containing 50 μg/ml gentamicin. Additional four, 10-fold or ½ log serial dilutions are made to provide a total of five drug concentrations plus control. Aliquots of 100 μl of these different drug dilutions are added to the appropriate microtiter wells already containing 100 μl of medium, resulting in the required final drug concentrations.
(§8) Following drug addition, the plates are incubated for an additional 48 h at 37°C, 5 % CO2, 95 % air, and 100 % relative humidity. For adherent cells, the assay is terminated by the addition of cold TCA. Cells are fixed in situ by the gentle addition of 50 μl of cold 50 % (w/v) TCA (final concentration, 10 % TCA) and incubated for 60 minutes at 4°C. The supernatant is discarded, and the plates are washed five times with tap water and air dried. Sulforhodamine B (SRB) solution (100 μl) at 0.4 % (w/v) in 1 % acetic acid is added to each well, and plates are incubated for 10 minutes at room temperature. After staining, unbound dye is removed by washing five times with 1 % acetic acid and the plates are air dried. Bound stain is subsequently solubilized with 10 mM trizma base, and the absorbance is read on an automated plate reader at a wavelength of 515 nm. For suspension cells, the methodology is the same except that the assay is terminated by fixing settled cells at the bottom of the wells by g ently adding 50 μl of 80 % TCA (final concentration, 16 % TCA). Using the seven absorbance measurements [time zero, (Tz), control growth, (C), and test growth in the presence of drug at the five concentration levels (Ti)], the percentage growth is calculated at each of the drug concentrations levels. Percentage growth inhibition is calculated as:
(§9) [(Ti-Tz)/(C-Tz)] x 100 for concentrations for which Ti>/=Tz
(§10) [(Ti-Tz)/Tz] x 100 for concentrations for which Ti<Tz.
(§11) Three dose response parameters are calculated for each experimental agent. Growth inhibition of […]
(§12) resulting in a 50% reduction in the net protein increase (as measured by SRB staining) in control cells during the drug incubation. The drug concentration resulting in total growth inhibition […]
(§13) (TGI) is calculated from Ti = Tz.

[4] = test system: BT-549; experiment: NCI 60 cell line screen; details: Homo sapiens; BT-549, Breast Cancer; read-out: Percent growth
Description: as §4, §5, §6, §7, §8, §9, §10, §11, §12, §13

[5] = test system: CCRF-CEM; experiment: NCI 60 cell line screen; details: Homo sapiens, Leukemia, read-out: Percent growth
Description: as §4, §5, §6, §7, §8, §9, §10, §11, §12, §13

[6] = test system: COLO 205; experiment: NCI 60 cell line screen; details: Homo sapiens; COLO 205, Colon Cancer; read-out: Percent growth
Description: as §4, §5, §6, §7, §8, §9, §10, §11, §12, §13

[7] = test system: DU-145; experiment: NCI 60 cell line screen; details: Homo sapiens; DU-145, Prostate Cancer; read-out: Percent growth
Description: as §4, §5, §6, §7, §8, §9, §10, §11, §12, §13

[8] = test system: OVCAR-3; experiment: NCI 60 cell line screen; details: Homo sapiens; OVCAR-3, Ovarian Cancer; read-out: Percent growth
Description: as §4, §5, §6, §7, §8, §9, §10, §11, §12, §13

[9] = test system: OVCAR-8; experiment: NCI 60 cell line screen; details: Homo sapiens; OVCAR-8, Ovarian Cancer; read-out: Percent growth
Description: as §4, §5, §6, §7, §8, §9, §10, §11, §12, §13

[10] = test system: SK-MEL-2; experiment: NCI 60 cell line screen; details: Homo sapiens; SK-MEL-2, Melanoma; read-out: Percent growth
Description: as §4, §5, §6, §7, §8, §9, §10, §11, §12, §13

[11] = test system: SK-OV-3; experiment: NCI 60 cell line screen; details: Homo sapiens; SK-OV-3, Ovarian Cancer; read-out: Percent growth
Description: as §4, §5, §6, §7, §8, §9, §10, §11, §12, §13

[12] = test system: SN12C; experiment: NCI 60 cell line screen; details: Homo sapiens, Renal Cancer, read-out: Percent growth
Description: as §4, §5, §6, §7, §8, §9, §10, §11, §12, §13

[13] = test system: SNB-19; experiment: NCI 60 cell line screen; details: Homo sapiens; SNB-19, CNS-Cancer; read-out: Percent growth
Description: as §4, §5, §6, §7, §8, §9, §10, §11, §12, §13

[14] = test system: SW-620; experiment: NCI 60 cell line screen; details: Homo sapiens; SW-620, Colon Cancer; read-out: Percent growth
Description: as §4, §5, §6, §7, §8, §9, §10, §11, §12, §13

Row | Compound | IC50 [1] | IC50 [2] | activity at 10 µM [3] | activity at 10 µM [4] | activity at 10 µM [5] | activity at 10 µM [6] | activity at 10 µM [7] | activity at 10 µM [8] | activity at 10 µM [9] | activity at 10 µM [10] | activity at 10 µM [11] | activity at 10 µM [12] | activity at 10 µM [13] | activity at 10 µM [14]
1 | O=S(=O)(NCCCNc1nccc(-n2cnc3ccccc32)n1)c1ccc(Cl)cc1 [12j, N-(3-((4-(1H-benzo [d]imidazol-1-yl)pyrimidin-2-yl)amino)propyl)-4-chloro benzenesulfonamide] | 10.4 ± 0.24 µM | 12.9 ± 0.72 µM | 73% | 90.1% | 91.7% | 110% | 100% | 107% | 90.8% | 108% | 117% | 91.7% | 104% | 110%
2 | O=S(=O)(NCCCNc1nccc(-n2cnc3ccccc32)n1)c1ccc(Br)cc1 [12k, N-(3-((4-(1H-benzo [d]imidazol-1-yl)pyrimidin-2-yl)amino)propyl)-4-bromo benzenesulfonamide] | 12 ± 0.47 µM | 13.5 ± 0.39 µM | 77.2% | 80.8% | 83% | 108% | 96.5% | 104% | 82.5% | 105% | 109% | 89.2% | 98.6% | 106%
3 | O=S(=O)(NCCCNc1nccc(-n2cnc3ccccc32)n1)c1ccc(C(F)(F)F)cc1 [12l, N-(3-((4-(1H-benzo [d]imidazol-1-yl)pyrimidin-2-yl)amino)propyl)-4-(trifluoromethyl) benzenesulfonamide] | 1.85 ± 0.11 µM | 2.02 ± 0.09 µM | 55.3% | 62.9% | 51.9% | 78.2% | 83.5% | 81.2% | 60% | 91% | 80.3% | 80.5% | 83.4% | 99.5%
4 | COc1ccc(S(=O)(=O)NCCCNc2nccc(-n3cnc4ccccc43)n2)cc1 [12m, N-(3-((4-(1H-benzo [d]imidazol-1-yl)pyrimidin-2-yl)amino)propyl)-4-methoxy benzenesulfonamide] | 13.1 ± 0.27 µM | 14.6 ± 0.71 µM | 81.9% | 92.9% | 91.4% | 108% | 100% | 105% | 93.7% | 103% | 96.2% | 92.4% | 100% | 104%
5 | O=S(=O)(NCCCNc1nccc(-n2cnc3ccccc32)n1)c1cccc2ccccc12 [12n, N-(3-((4-(1H-benzo [d]imidazol-1-yl)pyrimidin-2-yl)amino)propyl)naphthalene-1-sulfonamide] | 16.9 ± 0.81 µM | 17.9 ± 0.62 µM | 72.1% | 88.2% | 70.9% | 96.4% | 94.5% | 96.8% | 82.5% | 97.8% | 92.5% | 85.9% | 94.2% | 106%
